According to paper PMC11674118, “New High-Affinity Peptide Ligands for Kv1.2 Channel: Selective Blockers and Fluorescent Probes” (Cells, 2024):
*1 amine or outer side, *2 acyl side, *3 side chain or, on linkers, in order; H or OH if unused. Where a SMILES comes first, the peptide text is derived from it. Bridges are numbered along the chain shown (N, C = ends). [ ]: non-standard residue; d: D form. The star is where a group is joined. X1 = N=c1ccc2c(-c3ccccc3C(=O)*)c3ccc(N)c(S(=O)(=O)O)c3oc-2c1S(=O)(=O)O; NMeGABA = CN(CCCC(=O)[*:2])[*:1]

What was measured:
[1] = target: T1, human Kv1.2 channel, mKate2-Kv1.2(S371T) (K-Kv1.2) (Homo sapiens, UniProt P16389, S371T); experiment: Binding of fluorescent ligands to K-Kv1.2 on living Neuro2a cells (confocal microscopy, Rav titration); conditions: concentration dependence of binding
T1 construct: expressed in transfected cells; host or cells: mouse neuroblastoma Neuro2a cells, transient transfection with pmKate2-KCNA2m1
T1 sequence (P16389 whole entry S371T): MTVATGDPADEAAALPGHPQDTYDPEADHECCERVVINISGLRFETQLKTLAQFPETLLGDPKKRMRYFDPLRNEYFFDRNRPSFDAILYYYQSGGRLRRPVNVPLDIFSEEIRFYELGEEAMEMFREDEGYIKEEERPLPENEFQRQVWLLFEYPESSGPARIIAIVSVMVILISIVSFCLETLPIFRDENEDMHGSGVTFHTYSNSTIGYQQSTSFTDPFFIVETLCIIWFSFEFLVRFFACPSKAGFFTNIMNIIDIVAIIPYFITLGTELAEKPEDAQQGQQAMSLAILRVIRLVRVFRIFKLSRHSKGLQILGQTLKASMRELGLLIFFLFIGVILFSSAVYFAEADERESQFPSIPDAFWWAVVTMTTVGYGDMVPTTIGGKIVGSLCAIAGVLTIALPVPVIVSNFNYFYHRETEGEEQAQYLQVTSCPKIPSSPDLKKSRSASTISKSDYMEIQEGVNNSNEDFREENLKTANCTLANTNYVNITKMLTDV
Procedure: (§1) Cellular organelles were stained as described earlier. To analyze the binding of Kv1.2 with fluorescent ligands, A-HgTx (0.06–2 nM) or HgTx-G (0.06–0.5 nM) was added to cells in a complete medium for 90–120 min. To analyze competitive binding, HgTx-G (0.5 nM) was added to cells together with the studied peptide (0.1–0.8 nM HgTx1; 0.05–0.8 nM MgTx; 5–20 nM ChTx; 50–400 nM AgTx2; 0.05–0.2 nM Ce1; 0.2–5 nM Ce4) in a complete medium for 90–120 min.
(§2) Microscopy was carried out using an SP2 confocal microscope with an HCX PL APO 63×/1.2 objective (Leica Microsystems GmbH, Wetzlar, Germany). The size of the confocal diaphragm corresponded to 1 Airy disk. Typical voxel size was 0.06 × 0.06 × 0.9 µm except for serial ligand binding experiments, where its size was 0.23 × 0.23 × 0.9 µm. […]
(§3) Quantitative analysis of the interaction of fluorescent ligands with Kv1.2 was carried out using Image J software (version 1.48, National Institute of Health, Bethesda, MD, USA) as described earlier. This analysis was based on calculating the ratio of the fluorescent intensities of the bound ligand to the channel (Ri) in each selected region of interest on the plasma membrane for the confocal images of 20–25 measured cells, followed by calculating the average value (Rav) and standard deviation. […]

[2] = target: Kv1.1 channel (K-Kv1.1); conditions: cited from earlier work
Procedure: (§4) Previously, labeling of HgTx1 with fluorophores Cy3, Cy5, Alexa 488, Alexa 546, Alexa 594, Alexa 660, and Alexa 680 was performed at the cysteine residue introduced instead of alanine 19 [23].

[3] = target: T2, Kv1.3 channel (K-Kv1.3) (Homo sapiens, UniProt P22001); conditions: cited from earlier work
T2 construct: expressed in transfected cells; host or cells: Neuro2a cells; tracer A-HgTx bought from Smartox Biotechnology
T2 sequence (P22001 whole entry): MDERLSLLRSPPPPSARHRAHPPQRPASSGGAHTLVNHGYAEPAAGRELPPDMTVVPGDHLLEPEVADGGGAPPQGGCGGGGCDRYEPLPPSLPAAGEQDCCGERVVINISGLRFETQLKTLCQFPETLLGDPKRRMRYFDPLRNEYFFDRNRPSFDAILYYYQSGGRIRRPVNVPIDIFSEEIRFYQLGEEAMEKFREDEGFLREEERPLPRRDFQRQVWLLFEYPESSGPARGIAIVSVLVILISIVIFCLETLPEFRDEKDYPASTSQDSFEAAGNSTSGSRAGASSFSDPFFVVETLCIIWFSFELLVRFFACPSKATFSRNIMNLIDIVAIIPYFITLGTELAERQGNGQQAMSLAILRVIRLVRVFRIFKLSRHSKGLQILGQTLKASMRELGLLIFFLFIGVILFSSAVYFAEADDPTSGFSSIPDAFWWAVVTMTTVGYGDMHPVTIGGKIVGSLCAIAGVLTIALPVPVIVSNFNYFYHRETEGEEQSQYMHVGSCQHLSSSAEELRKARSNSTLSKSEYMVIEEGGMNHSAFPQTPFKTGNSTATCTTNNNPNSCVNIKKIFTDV
Procedure: as §4

[4] = target: T3, human Kv1.2 channel, mKate2-Kv1.2(S371T, N469L) (K-Kv1.2m2) (Homo sapiens, UniProt P16389, N469L/S371T); experiment: Binding of fluorescent ligand to K-Kv1.2m2 on living Neuro2a cells (confocal microscopy, Rav titration)
T3 construct: expressed in transfected cells; host or cells: mouse neuroblastoma Neuro2a cells, transient transfection with pmKate2-KCNA2m1m2
T3 sequence (P16389 whole entry S371T/N469L): as the sequence (P16389 whole entry S371T) above, with N469L counted along it
Procedure: as §1, §2, §3

[5] = target: T4, human Kv1.2 channel (K-Kv1.2) (Homo sapiens, UniProt P16389, S371T); experiment: Competitive displacement of HgTx-G from complexes with K-Kv1.2 on Neuro2a cells; format: binding; conditions: displacement of HgTx-G (0.5 nM), 90-120 min, Cheng-Prusoff, triplicate, mean ± SD, read-out: apparent dissociation constant (Kap), Kv1.2
T4 construct: expressed in transfected cells; host or cells: mouse neuroblastoma Neuro2a cells, transient transfection with pmKate2-KCNA2m1; tracer HgTx-G made in E. coli Rosetta-gami(DE3)pLysS
T4 sequence (P16389 whole entry S371T): as the sequence (P16389 whole entry S371T) above
Procedure: as §1
Quantitative analysis of the interaction of fluorescent ligands with Kv1.2 was carried out using Image J software (version 1.48, National Institute of Health, Bethesda, MD, USA) as described earlier. This analysis was based on calculating the ratio of the fluorescent intensities of the bound ligand to the channel (Ri) in each selected region of interest on the plasma membrane for the confocal images of 20–25 measured cells, followed by calculating the average value (Rav) and standard deviation.
The peptide concentration (DC50) displacing 50% of the fluorescent ligand from the complex with Kv1.2 was estimated by the dependence of Rav on the concentration (C) of the added peptide at the fixed concentration of the fluorescent ligand:Rav(C)/Rav0 = 1/(1 + C/DC50)(2) […]
The apparent dissociation constant (Kap) of the complex between Kv1.2 and the studied peptide was calculated using the Cheng–Prusoff equation:Kap = DC50/(1 + L/Kd)(3) […]

| Structure (SMILES) | binding saturation concentration, K-Kv1.2 [1] | Kd [2] | Kd [3] | binding saturation concentration, K-Kv1.2m2 ([4]; concentration dependence of binding, Neuro2a cells) | Kd ([4]; living Neuro2a cells, complete medium, confocal microscopy, triplicate, mean ± SD, SD, read-out: dissociation constant (Kd) of the complex with K-Kv1.2m2) | Kd [5] |
| --- | --- | --- | --- | --- | --- | --- |
| CC[C@H](C)[C@@H]1NC(=O)CNC(=O)[C@H](Cc2ccccc2)NC(=O)[C@H](CCC(N)=O)NC(=O)[C@H](C)NC(=O)[C@H](CCCCN)NC(=O)[C@@H]2CSSC[C@@H](C(=O)N[C@@H](Cc3ccc(O)cc3)C(=O)N3CCC[C@H]3C(=O)N[C@@H](Cc3c[nH]cn3)C(=O)O)NC(=O)[C@H](CCCCN)NC(=O)[C@@H]3CSSC[C@H](NC(=O)[C@H](CCC(N)=O)NC(=O)[C@H](CCCCN)NC(=O)[C@@H]4CCCN4C(=O)[C@H](CO)NC(=O)[C@H]([C@@H](C)O)NC(=O)[C@@H](NC(=O)[C@H](CCCCN)NC(=O)[C@@H](NC(=O)[C@H](CC(=O)O)NC(=O)[C@@H](NC(=O)[C@@H](NC(=O)[C@@H](NC(=O)CCCN(C)C(=O)c4ccccc4-c4c5ccc(=N)c(S(=O)(=O)O)c-5oc5c(S(=O)(=O)O)c(N)ccc45)[C@@H](C)O)C(C)C)[C@@H](C)CC)C(C)C)CSSC[C@H](NC(=O)[C@H](CCCCN)NC(=O)[C@H](C)NC(=O)CNC(=O)[C@H](C)NC(=O)[C@H](CCCNC(=N)N)NC1=O)C(=O)N[C@@H](CCSC)C(=O)N[C@@H](CC(N)=O)C(=O)NCC(=O)N[C@@H](CCCCN)C(=O)N3)C(=O)N[C@@H](CC(C)C)C(=O)N1CCC[C@H]1C(=O)N1CCC[C@H]1C(=O)N2 [A-HgTx] (X1-[NMeGABA]TVIDVKCTSPKQCLPPCKAQFGIRAGAKCMNGKCKCYPH-OH; disulfide 8-30, 14-35, 18-37; C-terminus assumed) | ~ 0.5 nM | 700 ± 200 pM | 300 ± 130 pM | ~ 0.5 nM | 80 ± 20 pM | – |
| CC[C@H](C)[C@@H]1NC(=O)[C@@H]2CSSC[C@@H]3NC(=O)[C@H](CCCCN)NC(=O)[C@H](CCCNC(=N)N)NC(=O)[C@H](CC(N)=O)NC(=O)[C@H](CCSC)NC(=O)[C@H](CSSC[C@H](NC(=O)[C@H](CO)NC(=O)[C@@H](NC(=O)[C@H](CC(N)=O)NC(=O)[C@@H](NC(=O)[C@@H]4CCCN4C(=O)[C@@H](NC(=O)CN)C(C)C)[C@@H](C)CC)C(C)C)C(=O)N[C@@H]([C@@H](C)O)C(=O)NCC(=O)N[C@@H](CO)C(=O)N4CCC[C@H]4C(=O)N[C@@H](CCC(N)=O)C(=O)N2)NC(=O)[C@H](CCCCN)NC(=O)CNC(=O)[C@H](Cc2ccccc2)NC(=O)[C@H](CCCNC(=N)N)NC(=O)[C@H](CCSC)NC(=O)CNC(=O)[C@H](C)NC(=O)[C@H](CC(=O)O)NC(=O)[C@H](CCCCN)NC(=O)[C@H](CSSC[C@@H](C(=O)N[C@H](C(=O)N2CCC[C@H]2C(=O)N[C@@H](CCCCN)C(=O)O)[C@@H](C)O)NC(=O)[C@H](Cc2c[nH]cn2)NC3=O)NC(=O)[C@@H]2CCCN2C(=O)[C@H](CCCCN)NC1=O [AgTx2] | – | – | – | – | – | 21500 ± 1200 pM |
